Experiment [1] concerns the target human D2 receptors expressed in stably transfected HEK 293 cells (Homo sapiens, UniProt P14416). The experiment can be described thus: forskolin-dependent whole cell adenylyl cyclase inhibition assay, D2. The note with it: HEK293, read-out: Intrinsic activity hD2 HEK. The class given is cell-based.
In experiment [2] the target is human D3 receptors expressed in stably transfected HEK 293 cells (Homo sapiens, UniProt P35462). The experiment can be described thus: forskolin-dependent whole cell adenylyl cyclase inhibition assay, D3. The experiment is classed as cell-based. The following applies: HEK293, read-out: Intrinsic activity hD3 HEK.

Emax data for 2 molecules are collected here from paper PMC4297516 (Bioorganic & medicinal chemistry letters, 2014).

Molecules are shown by their SMILES.

Chain of human D2 receptors expressed in stably transfected HEK 293 cells (P14416 whole entry): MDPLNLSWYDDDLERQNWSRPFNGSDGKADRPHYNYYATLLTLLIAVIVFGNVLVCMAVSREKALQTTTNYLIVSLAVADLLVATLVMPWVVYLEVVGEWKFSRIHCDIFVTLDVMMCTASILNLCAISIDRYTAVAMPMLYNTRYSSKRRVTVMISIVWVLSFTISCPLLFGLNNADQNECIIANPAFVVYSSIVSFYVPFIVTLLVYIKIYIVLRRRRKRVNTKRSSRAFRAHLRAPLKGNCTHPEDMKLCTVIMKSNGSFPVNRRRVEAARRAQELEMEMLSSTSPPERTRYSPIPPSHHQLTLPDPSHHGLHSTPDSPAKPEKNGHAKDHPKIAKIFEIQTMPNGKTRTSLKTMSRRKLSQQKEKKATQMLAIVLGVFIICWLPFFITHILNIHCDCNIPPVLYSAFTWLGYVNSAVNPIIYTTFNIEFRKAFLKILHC
Chain of human D3 receptors expressed in stably transfected HEK 293 cells (P35462 whole entry): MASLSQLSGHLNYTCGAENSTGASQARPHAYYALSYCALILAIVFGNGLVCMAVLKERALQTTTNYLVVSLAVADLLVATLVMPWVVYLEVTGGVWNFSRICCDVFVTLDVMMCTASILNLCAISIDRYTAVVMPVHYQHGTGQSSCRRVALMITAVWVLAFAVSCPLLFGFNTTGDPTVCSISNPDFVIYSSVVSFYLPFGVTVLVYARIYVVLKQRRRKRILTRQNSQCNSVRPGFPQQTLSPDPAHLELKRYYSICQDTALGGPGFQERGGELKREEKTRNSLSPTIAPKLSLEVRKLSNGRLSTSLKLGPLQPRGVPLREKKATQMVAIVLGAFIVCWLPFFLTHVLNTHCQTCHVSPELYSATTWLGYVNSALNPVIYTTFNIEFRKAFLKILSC

Consider `COc1ccccc1N1CCN(CCCCNC(=O)c2ccc(N(C)C)cc2)CC1` [WC 10, 4-(Dimethylamino)-N-[4-(4-(2-methoxyphenyl)piperazin-1-yl)butyl]benzamide], for which the Emax stood at 33.5 ± 3.1% in experiment [1] and 18.7 ± 2.2% in experiment [2].

For `COc1ccccc1N1CCN(CCCCNC(=O)c2ccc(CCF)cc2)CC1` [WC 44], the Emax in experiment [1] is 35.3 ± 1%.
